In patent publication US7468391B2, “Methods for treating retinoid responsive disorders using selective inhibitors of CYP26A and CYP26B” (Allergan, Inc., priority 2003, dated 2008) one finds IC50 and Kd data, which are given here for eleven compounds.

The structures appear in SMILES notation. Where only a bound is given, the exact number is not on record here.

The target of one assay is T1, CYP26B (P450RAI-2) (Homo sapiens, UniProt Q9NR63).
T1 construct: expressed in transfected cells; host or cells: HeLa
T1 sequence (Q9NR63 1-512): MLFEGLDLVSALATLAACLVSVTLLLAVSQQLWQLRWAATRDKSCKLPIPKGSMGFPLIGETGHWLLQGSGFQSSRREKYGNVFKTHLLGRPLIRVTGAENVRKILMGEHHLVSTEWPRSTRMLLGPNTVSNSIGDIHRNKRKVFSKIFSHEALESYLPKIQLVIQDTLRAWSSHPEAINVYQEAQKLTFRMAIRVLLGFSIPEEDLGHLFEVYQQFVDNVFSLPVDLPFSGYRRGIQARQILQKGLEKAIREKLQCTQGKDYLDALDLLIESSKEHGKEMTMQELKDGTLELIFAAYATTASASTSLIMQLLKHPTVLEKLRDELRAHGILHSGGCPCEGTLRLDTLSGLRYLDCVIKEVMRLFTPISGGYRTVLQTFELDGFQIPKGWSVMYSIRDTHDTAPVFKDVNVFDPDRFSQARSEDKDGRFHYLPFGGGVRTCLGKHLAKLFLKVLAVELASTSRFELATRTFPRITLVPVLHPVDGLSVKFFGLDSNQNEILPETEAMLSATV
Nature of the assay: Cell-based inhibition of RA metabolism in CYP26B stably transfected HeLa cells. As to conditions: stably transfected HeLa cells, [3H]-RA, 3 hours at 37° C.; read-out: P450RAI-2 Whole cell IC50. The method, then: (§1) In brief, CYP26A or CYP26B can be stably transfected into HeLa cells. Exponentially growing cells are harvested by incubating in trypsin. Cells are then washed and plated in a 48-well plate at 5×10^5 cells in 0.2 ml MEM medium containing 10% FBS and 0.05 μCi [^3H]-RA in the presence or absence of increasing concentrations of the test compounds. The compounds are diluted in 100% DMSO and then added in triplicate wells at either 10, 1 or 0.1 μM final concentration. As a positive control for RA metabolism inhibition, cells are also incubated with ketoconazole at 100, 10 and 1 μM. Cells are incubated for 3 hours at 37 degrees C. The retinoids are then extracted using the procedure of Bligh et al., Canadian Journal of Biochemistry 37: 911-917 (1959), modified by using methylenechloride instead of chloroform. This publication by Bligh et al., is specifically incorporated herein by reference. The water soluble radioactivity is quantified using a β scintillation counter, and IC50 values are determined.
(§2) CYP26A and CYP26B stably transfected HeLa cells were maintained in 100 mm tissue culture dishes in MEM medium containing 10% FBS and 100 μg/ml hygromycin.
(§3) Exponentially growing cells were harvested by incubating in trypsin. Cells were then washed with 1×PBS and plated in a 48-well plate at 5×10^5 cells in 0.2 ml MEM medium containing 10% FBS and 0.05 μCi [^3H]-RA in the presence or absence of increasing concentrations of the test compounds. The compounds were diluted in 100% DMSO and then added to triplicate wells at final concentrations of 10, 1 or 0.1 μM. As a positive control for RA metabolism inhibition, cells were also incubated with ketoconazole at 100, 10 and 1 μM. Cells were incubated for 3 hours at 37° C. The retinoids were then extracted using a modified Bligh and Dyer procedure (Bligh and Dyer, supra (1959)), in which methylene-chloride, as opposed to chloroform, was used, and the aqueous soluble radioactivity quantified using a β-scintillation counter. ID50 values represent the concentration of inhibitor required to inhibit RA metabolism by 50 percent and were derived manually from log-transformed data.

In another assay the target is T2, RAR γ (Homo sapiens, UniProt P13631).
T2 sequence (P13631 1-454): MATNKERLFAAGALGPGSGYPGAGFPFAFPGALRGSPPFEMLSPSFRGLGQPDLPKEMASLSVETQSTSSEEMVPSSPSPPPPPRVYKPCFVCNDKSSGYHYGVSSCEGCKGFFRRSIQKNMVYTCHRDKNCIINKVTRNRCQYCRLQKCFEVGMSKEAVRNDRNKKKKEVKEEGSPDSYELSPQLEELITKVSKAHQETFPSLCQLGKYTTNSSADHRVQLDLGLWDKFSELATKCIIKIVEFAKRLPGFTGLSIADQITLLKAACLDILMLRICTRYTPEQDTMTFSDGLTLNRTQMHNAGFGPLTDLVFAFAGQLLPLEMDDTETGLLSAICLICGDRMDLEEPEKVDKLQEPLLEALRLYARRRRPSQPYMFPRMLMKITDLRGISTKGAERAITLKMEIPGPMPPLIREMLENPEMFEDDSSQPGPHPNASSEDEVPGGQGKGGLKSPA
Nature of the assay: RAR γ Kd. To be noted: last item of cell EC50/(EFFICACY)/Kd. Format: binding.

For a further assay, the target named is T3, RAR α (Homo sapiens, UniProt P10276).
T3 sequence (P10276 1-462): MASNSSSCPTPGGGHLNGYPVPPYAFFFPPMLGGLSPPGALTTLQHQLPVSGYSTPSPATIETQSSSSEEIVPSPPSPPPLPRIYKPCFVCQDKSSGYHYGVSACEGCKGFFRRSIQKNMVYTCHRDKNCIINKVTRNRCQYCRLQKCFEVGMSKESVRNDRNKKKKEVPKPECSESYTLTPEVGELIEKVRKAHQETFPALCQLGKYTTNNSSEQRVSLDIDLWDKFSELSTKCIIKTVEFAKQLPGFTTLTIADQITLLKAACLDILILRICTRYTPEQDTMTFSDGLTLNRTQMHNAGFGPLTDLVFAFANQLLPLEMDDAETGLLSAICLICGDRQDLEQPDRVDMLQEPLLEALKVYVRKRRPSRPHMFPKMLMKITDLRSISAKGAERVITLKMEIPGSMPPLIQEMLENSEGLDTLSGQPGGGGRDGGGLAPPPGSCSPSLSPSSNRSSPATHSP
Nature of the assay: RAR α Kd. It is filed as binding. To be noted: last item of cell EC50/(EFFICACY)/Kd.

A further assay concerns the target T4, RAR β (Homo sapiens, UniProt P10826).
T4 sequence (P10826 1-455): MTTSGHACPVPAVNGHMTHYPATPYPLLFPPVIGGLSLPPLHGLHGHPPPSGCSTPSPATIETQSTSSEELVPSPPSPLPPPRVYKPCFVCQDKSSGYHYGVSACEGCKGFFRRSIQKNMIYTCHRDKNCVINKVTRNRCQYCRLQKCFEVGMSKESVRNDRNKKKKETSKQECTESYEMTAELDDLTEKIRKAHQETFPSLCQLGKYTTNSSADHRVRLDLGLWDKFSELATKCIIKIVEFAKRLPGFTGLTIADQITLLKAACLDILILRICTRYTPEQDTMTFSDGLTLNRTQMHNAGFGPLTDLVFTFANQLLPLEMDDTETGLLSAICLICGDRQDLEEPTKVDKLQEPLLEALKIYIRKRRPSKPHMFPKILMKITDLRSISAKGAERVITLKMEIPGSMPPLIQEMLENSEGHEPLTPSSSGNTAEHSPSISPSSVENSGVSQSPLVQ
Description: RAR β Kd. Format: binding. As to conditions: last item of cell EC50/(EFFICACY)/Kd.

The next assay deals with T5, CYP26A (P450RAI-1) (Homo sapiens, UniProt O43174).
T5 construct: expressed in transfected cells; host or cells: HeLa
T5 sequence (O43174 1-497): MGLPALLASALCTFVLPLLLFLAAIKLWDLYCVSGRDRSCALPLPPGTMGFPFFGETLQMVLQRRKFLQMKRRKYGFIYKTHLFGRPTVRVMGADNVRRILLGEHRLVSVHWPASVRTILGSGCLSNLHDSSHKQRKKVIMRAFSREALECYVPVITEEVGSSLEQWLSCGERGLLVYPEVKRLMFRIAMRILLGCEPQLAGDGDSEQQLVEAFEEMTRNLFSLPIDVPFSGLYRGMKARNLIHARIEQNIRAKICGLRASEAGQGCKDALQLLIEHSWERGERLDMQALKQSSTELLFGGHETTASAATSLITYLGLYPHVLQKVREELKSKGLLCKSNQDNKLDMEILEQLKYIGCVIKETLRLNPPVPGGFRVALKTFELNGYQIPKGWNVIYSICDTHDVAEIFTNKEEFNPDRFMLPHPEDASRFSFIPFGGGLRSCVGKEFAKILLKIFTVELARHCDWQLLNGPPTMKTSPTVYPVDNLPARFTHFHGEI
Description: Cell-based inhibition of RA metabolism in CYP26A stably transfected HeLa cells. As to conditions: stably transfected HeLa cells, [3H]-RA, 3 hours at 37° C.; read-out: P450RAI-1 Whole cell IC50. On the procedure:
as §1, §2, §3

The IC50 is the concentration that gives 50% inhibition. Usually Kd stands for the equilibrium constant for the complex coming apart. The low end stands for higher affinity, the high end for lower affinity. In the case of `CN(Cc1cc(C#Cc2ccc(C(C)(C)C(=O)O)cc2)cc2c1OC(C)(C)CC2(C)C)C1CC1` [Compound 9, 2-(4-{8-[(Cyclopropyl-methyl-amino)-methyl]-2,2,4,4-tetramethyl-chroman-6-ylethynyl}-phenyl)-2-methyl-propionic acid], the values for the IC50 at CYP26B (P450RAI-2) and at CYP26A (P450RAI-1) were more than 10 µM and 0.12 µM, respectively. Further, the Kd at RAR γ, at RAR α and at RAR β was more than 10 µM in each case.
As to `CC1(C)CC2(CC2)Oc2c(C3CC3)cc(C#Cc3ccc(C(C)(C)C(=O)O)cc3)cc21` [Compound 2, 2-{4-[(8-Cyclopropyl-3,4-dihydro-4,4-dimethylspiro[2H-1-benzopyran-2,1′-cyclopropane]-6-yl)ethynyl]-phenyl}-2-methyl-propionic acid], the IC50 is more than 10 µM on CYP26B (P450RAI-2) and 0.03 µM on CYP26A (P450RAI-1). Further, the Kd at RAR γ came to 5.58 µM; on RAR α, 0.558 µM; at RAR β it was 3.44 µM.
For `C#Cc1cc(C#Cc2ccc(CC(=O)O)c(F)c2)cc(C(=O)OC(C)C)c1` [Compound 61, 3-(4-Carboxymethyl-3-fluoro-phenylethynyl)-5-ethynyl-benzoic acid isopropyl ester] the same measures were 8.1 µM, 0.22 µM, more than 10 µM, more than 10 µM and more than 10 µM.
For `CC(C)OC(=O)c1cccc(C#Cc2ccc(CC(=O)O)c(F)c2)c1` [Compound 44, 3-(4-Carboxymethyl-3-fluoro-phenylethynyl)-benzoic acid isopropyl ester] the same measures were 7.5 µM, 0.7 µM, more than 10 µM, more than 10 µM and 8.17 µM.
As for `CC(C)(C)OC(=O)c1cc(C#Cc2ccc(CC(=O)O)cc2)cc2c1OC(C)(C)CC2(C)C` [Compound 20, 6-(4-Carboxymethyl-phenylethynyl)-2,2,4,4-tetramethyl-chroman-8-carboxylic acid tert-butyl ester], the half-maximal inhibitory concentration (IC50) at CYP26B (P450RAI-2) is more than 10 µM; on CYP26A (P450RAI-1) it was 2.9 µM.
Consider `CC(C)OC(=O)c1ccc(C#Cc2ccc(C(C)C(=O)O)cc2)cc1CN(C)C1CC1` (stereo not drawn) [Compound 40, 4-[4-(1-Carboxy-ethyl)-phenylethynyl]-2-[(cyclopropyl-methyl-amino)-methyl]-benzoic acid isopropyl ester], for which the IC50 on CYP26B (P450RAI-2) was more than 10 µM; at CYP26A (P450RAI-1) it was 1.3 µM. Further, the Kd at RAR γ, at RAR α and at RAR β was more than 10 µM each time.
As for `COc1cc(C#Cc2ccc(C(C)(C)C(=O)O)cc2)cc2c1C(N(C)C1CC1)CCC2(C)C` (stereo not drawn) [Compound 28, 2-{4-[5-(Cyclopropyl-methyl-amino)-4-methoxy-8,8-dimethyl-5,6,7,8-tetrahydro-naphthalen-2-ylethynyl]-phenyl}-2-methyl-propionic acid], the values for the IC50 at CYP26B (P450RAI-2) and at CYP26A (P450RAI-1) were more than 10 µM and 0.25 µM, respectively. In addition, the Kd is 4.2 µM on RAR γ, more than 10 µM on RAR α and more than 10 µM on RAR β.
For the compound `CC(C)OC(=O)c1cc(C#Cc2ccc(CC(=O)O)cc2)cc2c1OC(C)(C)CC2(C)C` [Compound 18, 6-(4-Carboxymethyl-phenylethynyl)-2,2,4,4-tetramethyl-chroman-8-carboxylic acid isopropyl ester], the IC50 was more than 10 µM at CYP26B (P450RAI-2) and 0.4 µM at CYP26A (P450RAI-1).
For `CC(C)N(Cc1cc(C(=O)Oc2ccc(CC(=O)O)cc2)cc2c1OC(C)(C)CC2(C)C)C1CC1` [Compound 17, 8-[(Cyclopropyl-isopropyl-amino)-methyl]-2,2,4,4-tetramethyl-chroman-6-carboxylic acid 4-carboxymethyl-phenyl ester] the same measures were more than 10 µM and 2.5 µM.
For `CC(C)(C)COC(=O)c1cc(C#Cc2ccc(CC(=O)O)cc2)cc2c1OC(C)(C)CC2(C)C` [Compound 19, 6-(4-Carboxymethyl-phenylethynyl)-2,2,4,4-tetramethyl-chroman-8-carboxylic acid 2,2-dimethylpropyl ester] the same measures were more than 10 µM and 7 µM.
Regarding `CC(C(=O)O)c1ccc(C#Cc2cc(C3CC3)c3c(c2)C(C)(C)CCC3N(C)C2CC2)cc1` (stereo not drawn) [Compound 49, 2-{4-[4-Cyclopropyl-5-(cyclopropyl-methyl-amino)-8,8-dimethyl-5,6,7,8-tetrahydro-naphthalen-2-ylethynyl]-phenyl}-propionic acid], the Kd at RAR γ was more than 10 µM; at RAR α it was 5.28 µM; at RAR β, more than 10 µM. The IC50 at CYP26A (P450RAI-1) worked out at 0.05 µM.
